pIC50: −log10 of the molar value. Like-named read-outs stand apart in the source and are kept apart here.
Legend:
Assay type in all cases: cell-based
[1] = test system: HL-60 (MLL-WT) cells; assay: Cell proliferation (alamarBlue) HL-60; conditions: Homo sapiens, HL-60 (MLL-WT), read-out: IC50 proliferation
Description: (§1) Cells were seeded in the optimal growth medium at 4000–5000 cells/well in a 96 MTP and cultured 18–24 h before inhibitor treatment.

[2] = test system: Jurkat (MLL-WT) cells; assay: Cell proliferation (alamarBlue) Jurkat; conditions: Homo sapiens, Jurkat (MLL-WT)
Description: as §1

[3] = test system: OCI-AML-5 (MLL-WT) cells; assay: Cell proliferation (alamarBlue) OCI-AML-5; conditions: Homo sapiens, OCI-AML-5, OCI-AML-5 (MLL-WT), read-out: IC50 proliferation
Description: as §1

[4] = test system: OCI-AML-3 (MLL-WT) cells; assay: Cell proliferation (alamarBlue) OCI-AML-3; conditions: Homo sapiens, OCI-AML-3, OCI-AML-3 (MLL-WT), read-out: IC50 proliferation
Description: as §1

[5] = test system: MV4-11 (MLL-AF4) cells; assay: Cell proliferation (alamarBlue) MV4-11; conditions: Homo sapiens, MV4-11, MV4-11 (MLL-AF4), read-out: IC50 proliferation
Description: as §1

[6] = test system: RS4;11 (MLL-AF4) cells; assay: Cell proliferation (alamarBlue) RS4;11; conditions: Homo sapiens, RS4-11, RS4;11 (MLL-AF4), read-out: IC50 proliferation
Description: as §1

[7] = test system: SEM (MLL-AF4) cells; assay: Cell proliferation (alamarBlue) SEM; conditions: SEM (MLL-AF4), read-out: IC50 proliferation
Description: as §1

[8] = test system: ML-2 (MLL-AF6) cells; assay: Cell proliferation (alamarBlue) ML-2; conditions: ML-2 (MLL-AF6), read-out: IC50 proliferation
Description: as §1

[9] = test system: MOLM-13 (MLL-AF9) cells; assay: Cell proliferation (alamarBlue) MOLM-13; conditions: Homo sapiens, MOLM-13, MOLM-13 (MLL-AF9), read-out: IC50 proliferation
Description: as §1

[10] = test system: MOLM-14 (MLL-AF9) cells; assay: Cell proliferation (alamarBlue) MOLM-14; conditions: Homo sapiens, MOLM-14, MOLM-14 (MLL-AF9), read-out: IC50 proliferation
Description: as §1

[11] = test system: NOMO-1 (MLL-AF9) cells; assay: Cell proliferation (alamarBlue) NOMO-1; conditions: Homo sapiens, NOMO-1, NOMO-1 (MLL-AF9), read-out: IC50 proliferation
Description: as §1

[12] = test system: OCI-AML-2 (MLL-AF9) cells; assay: Cell proliferation (alamarBlue) OCI-AML-2; conditions: Homo sapiens, OCI-AML2, OCI-AML-2 (MLL-AF9), read-out: IC50 proliferation
Description: as §1

[13] = test system: KOPN-8 (MLL-ENL) cells; assay: Cell proliferation (alamarBlue) KOPN-8; conditions: Homo sapiens, KOPN-8, KOPN-8 (MLL-ENL), read-out: IC50 proliferation
Description: as §1

[14] = test system: EOL-1 (MLL-TD) cells; assay: Cell proliferation (alamarBlue) EOL-1; conditions: Homo sapiens, EOL1, EOL-1 (MLL-TD), read-out: IC50 proliferation
Description: as §1

[15] = test system: MV4-11, MOLM-13 and HL-60 cells; assay: Cell proliferation, all three tested AML cell lines; conditions: 96 h; all tested cell lines (MV4-11, MOLM-13, HL-60), 4 days of treatment (Fig. 1a); read-out: anti-proliferation IC50s
Description: Cells were seeded in the optimal growth medium at 4000–5000 cells/well in a 96 MTP and cultured 18–24 h before inhibitor treatment. Upon treatment with the indicated inhibitor, cells were cultured for 24 h, 96 h, and 168 h and effects on proliferation were determined using alamarBlue Cell Viability Reagent (Thermo Fisher Scientific, Waltham, MA, USA).

[16] = test system: HL-60 cells; assay: CD11b protein expression by flow cytometry, HL-60; conditions: non-fused HL-60 cell line, 4 and 7 days of treatment
Description: Four thousand cells per well were seeded 24 h before they were treated with the indicated inhibitor in a 96 MTP. After 4 or 7 days of treatment, cells were washed with PBS and stained with CD11b - APC (BioLegend, San Diego, California, USA) and DAPI (Thermo Fisher Scientific, Waltham, Massachusetts, USA) or AnnexinV – FITC (BioLegend, San Diego, California, USA) and PI solution (Sigma-Aldrich St. Louis, Missouri, USA) using the FACS Canto II (BD Biosciences, Heidelberg, Germany) and data was analyzed with FACSDiva software.

[17] = test system: MV4-11, MOLM-13 and HL-60 cells; assay: Cell cycle analysis (PI, flow cytometry); conditions: 4 days of treatment (Figure S2)
Description: Cells were washed with PBS and fixed overnight at − 20 °C with 70% ethanol. Fixed cells were stained with PI solution (Sigma-Aldrich St. Louis, MO, USA) solution containing RNase A (Qiagen, Hilden, Germany). Fluorescence was measured with FACS Canto II (BD Biosciences, Heidelberg, Germany) flow cytometer and data was analyzed with FACSDiva software.

## COc1cc(F)ccc1-c1cc(Nc2cc(CS(C)(=N)=O)ccn2)ncc1F (stereo not drawn) [BAY 1251152]
[1]; 24 h, 1 day of treatment (D1)
  pIC50: 6.85
[1]; 96 h, 4 days of treatment (D4)
  pIC50: 6.96
[1]; 168 h, 7 days of treatment (D7)
  pIC50: 6.62
[2]; D1, read-out: IC50 proliferation
  pIC50: 6.85
[2]; D4, read-out: IC50 proliferation
  pIC50: 7.52
[2]; D7, read-out: IC50 proliferation
  pIC50: 7.52
[3]; D1
  pIC50: 6.80
[3]; D4
  pIC50: 7.30
[3]; D7
  pIC50: 7.52
[4]; D1
  pIC50: 7.05
[4]; D4
  pIC50: 6.96
[4]; D7
  pIC50: 6.74
[5]; D1
  pIC50: 6.64
[5]; D4
  pIC50: 7.15
[5]; D7
  pIC50: 6.66
[6]; D1
  pIC50: 6.96
[6]; D4
  pIC50: 7.05
[6]; D7
  pIC50: 7.05
[7]; D1
  pIC50: 6.59
[7]; D4
  pIC50: 7.05
[7]; D7
  pIC50: 6.70
[8]; D1
  pIC50: 6.96
[8]; D4
  pIC50: 6.70
[8]; D7
  pIC50: 6.64
[9]; D1
  pIC50: 7.15
[9]; D4
  pIC50: 7.22
[9]; D7
  pIC50: 7.15
[10]; D1
  pIC50: 7.40
[10]; D4
  pIC50: 7.40
[10]; D7
  pIC50: 7.15
[11]; D1
  pIC50: 6.62
[11]; D4
  pIC50: 7.22
[11]; D7
  pIC50: 7.00
[12]; D1
  pIC50: 7.15
[12]; D4
  pIC50: 6.96
[12]; D7
  pIC50: 7.15
[13]; D1
  pIC50: 6.80
[13]; D4
  pIC50: 6.92
[13]; D7
  pIC50: 6.68
[14]; D1
  pIC50: 7.15
[14]; D4
  pIC50: 7.52
[14]; D7
  pIC50: 7.22
[15]
  pIC50: 6.85 to 7.52
[16]
  CD11b level: treatment did
[17]
  cell cycle effect: decrease of cells in S and G2/M phase with increasing concentrations

Source: PMC6599250, “Functional diversity of inhibitors tackling the differentiation blockage of MLL-rearranged leukemia” (Journal of Hematology & Oncology, 2019)
